Results taken from patent US20240325369A1 (priority 2021, published 2024).

Procedure: Efficacy objectives were evaluated for subjects meeting the biomarker selection criteria described in the protocol. All subjects were monitored for safety during the study period, and up to 30 days after the last dose of study drug. Treatment continued until disease progression, unacceptable toxicity, death, or termination of the study by the sponsor.
Serum PSA, CTCs, survival status, SSEs were also collected. PROs included the BPI-SF, FACT-P, and EQ-5D-5L questionnaires. Safety assessments included recording of AEs, physical examinations, vital signs, ECGs, and ECOG performance status. Clinical laboratory testing included hematology, blood chemistry, and liver function parameters. Blood samples were also taken for pharmacokinetic assessments and biomarker analysis. Archival or recently collected tumor tissue samples were obtained from consenting subjects for biomarker identification.
All AEs reported on or after the date of first dose until 30 days (inclusive) after the last dose of study drug were considered treatment-emergent and were summarized. […] In addition. AE incidence rates were also summarized by severity and relationship to study drug. Treatment-related AEs were those judged by the investigator to beat least possibly related to the study drug. […] Deaths that occurred within 30 days after the last dose of study drug were defined as on-study deaths. No inferential statistical analyses were performed in analyzing the safety data.

[1] = safety population (289 subjects)
[2] = safety population (289 subjects), 300 mg once daily
[3] = safety population (289 subjects), data cutoff 26 Jan. 2021
[4] = safety population, 300 mg once daily

Q: For NC(=O)c1cccc2cn(-c3ccc([C@@H]4CCCNC4)cc3)nc12 [Niraparib, 2-[4-[(3S)-piperidin-3-yl]phenyl]-2H-indazole-7-carboxamide], which “Treatment discontinuation because of adverse events (reason for discontinuation)” value (289 enrolled subjects, clinical data cutoff 26 Jan. 2021) is on record?
A: 14%

Q: What about the Safety profile (heavily pre-treated prostate cancer population) of the same compound?
A: manageable

Q: And the “Deaths due to treatment-emergent AEs, % of subjects” value [1]?
A: 5.5%

Q: What about the “Deaths due to treatment-emergent AEs, number of subjects” value [1] of the same compound?
A: 16

Q: And the “Deaths within 30 days of the last dose due to progressive disease, % of subjects” value [1]?
A: 6%

Q: And the “Deaths within 30 days of the last dose due to progressive disease, number of subjects” value [1]?
A: 17

Q: What about the “AEs leading to treatment discontinuation, % of subjects” value [2] of the same compound?
A: 22.8%

Q: What about the “Adverse event of clinical interest (all grades): anemia” value [2] of the same compound?
A: 54.0%

Q: What about the “Adverse event of clinical interest (all grades): febrile neutropenia” value [2] of the same compound?
A: 1.0%

Q: And the “Adverse event of clinical interest (all grades): neutropenia” value [2]?
A: 19.4%

Q: What about the “Adverse event of clinical interest (all grades): thrombocytopenia” value [2] of the same compound?
A: 34.3%

Q: What about the “Grade 3 or 4 AE: anemia” value [2] of the same compound?
A: 32.9%

Q: And the “Grade 3 or 4 AE: fatigue” value [2]?
A: 6.6%

Q: And the “Grade 3 or 4 AE: nausea” value [2]?
A: 5.2%

Q: And the “Grade 3 or 4 AE: neutropenia” value [2]?
A: 9.7%

Q: What about the “Grade 3 or 4 AE: thrombocytopenia” value [2] of the same compound?
A: 16.3%

Q: And the “Grade 3 or 4 AEs, % of subjects” value [2]?
A: 75.1%

Q: What about the “Grade 4 AE: thrombocytopenia, % of subjects” value [2] of the same compound?
A: 8.0%

Q: And the “Grade 4 AE: thrombocytopenia, number of subjects” value [2]?
A: 23

Q: What about the “Subjects reporting SAEs” value [2] of the same compound?
A: 46.4%

Q: And the “Subjects who experienced at least 1 AE” value [2]?
A: 99.7%

Q: What about the “Subjects who reported a related AE” value [2] of the same compound?
A: 90%

Q: What about the “Deaths within 30 days of the last dose of study drug, % of subjects” value [3] of the same compound?
A: 9%

Q: What about the “Deaths within 30 days of the last dose of study drug, number of subjects” value [3] of the same compound?
A: 26

Q: And the “Grade 3 or 4 clinical chemistry value: hyperkalemia” value [4]?
A: 2.5%

Q: What about the “Grade 3 or 4 clinical chemistry value: hyponatremia” value [4] of the same compound?
A: 3.2%

Q: What about the “Grade 3 or 4 clinical chemistry value: increased GGT” value [4] of the same compound?
A: 5.0%

Q: And the “Grade 3 or 4 clinical chemistry value: increased alkaline phosphatase” value [4]?
A: 2.5%

Q: What about the “Grade 3 or 4 hematology value: anemia” value [4] of the same compound?
A: 17.0%

Q: What about the “Grade 3 or 4 hematology value: decreased lymphocyte count” value [4] of the same compound?
A: 18.4%
